SMILES strings stand for the structures.

Experimental findings from patent US20110097268A1, “RADIOHALOIMATINIBS AND METHODS OF THEIR SYNTHESIS AND USE IN PET IMAGING OF CANCERS” (priority 2006, published 2011) are described below.

A short description of the data set: Storage stability of STI-Cl at room temperature. In kind it is physicochemical. The text has this: Attempts to make radiolabeling precursor, triflate, mesylate active leaving group from STI-OH failed because it was easily degraded into a mixture of starting material alcohol and STI-Cl during the purification of chromatography on Silica Gel. The behavior of these β-triflate amines may be due to the participation effect of nitrogen which cause triflate to leave by aliphatic chain cyclisation giving the aziridinium ion, which in turn reacts with the nucleophilic agent OH^−, Cl^−. In order to get a pure precursor, STI-Cl analog was selected as a target compound. The hydroxyl-Benzoic acid (9c) was treated with thionyl chloride to achieve the corresponding chloro-acid chloride dihydrochloride (10d). Subsequent condensation with N-(2-Methyl-5-aminophenyl)-4-(3-pyridyl)-2-pyrimidine-amine (6) in pyridine affords the STI-Cl. […] The Sti-Cl was treated with tetra ammonia fluoride at 80° C. in acetonitrile for 30 mins to generate cold Sti-F. Sti-Cl was also treated with tetra ammonia fluoride at 80° C. in acetonitrile microwave for 5 mins to generate cold Sti-F. The traditional heating method gave more yield and the microwave condition gave more clean reaction. (FIG. 3).

Consider `Cc1ccc(NC(=O)c2ccc(CN3CCN(CCCl)CC3)cc2)cc1Nc1nccc(-c2cccnc2)n1` [STI-Cl], for which the stability result is “not stable and decomposed at room temperature over two weeks”.
